Results: patent publication US20260364080A1, “PYRAZOLO-PYRIMIDINONE COMPOUNDS FOR USE IN METHODS OF INHIBITING WEE1 A KINASE” (Acrivon Therapeutics, Inc., priority 2023, published 2026)

How the values were obtained:
[1] = target: T1, Myt1 kinase (recombinant PMYT-1) (Homo sapiens, UniProt Q99640); test: Myt1 kinase binding assay (LanthaScreen Eu Kinase Binding Assay); conditions: 3 nM tracer 178, 2.5 nM PMYT-1, 1 nM Eu-labeled antibody; read-out: Myt1 kinase Binding IC50
T1 construct: full length PMYT-1 was expressed by baculovirus in insect cells; purchased Invitrogen A30984; host or cells: insect cells (baculovirus)
T1 sequence (Q99640 1-499): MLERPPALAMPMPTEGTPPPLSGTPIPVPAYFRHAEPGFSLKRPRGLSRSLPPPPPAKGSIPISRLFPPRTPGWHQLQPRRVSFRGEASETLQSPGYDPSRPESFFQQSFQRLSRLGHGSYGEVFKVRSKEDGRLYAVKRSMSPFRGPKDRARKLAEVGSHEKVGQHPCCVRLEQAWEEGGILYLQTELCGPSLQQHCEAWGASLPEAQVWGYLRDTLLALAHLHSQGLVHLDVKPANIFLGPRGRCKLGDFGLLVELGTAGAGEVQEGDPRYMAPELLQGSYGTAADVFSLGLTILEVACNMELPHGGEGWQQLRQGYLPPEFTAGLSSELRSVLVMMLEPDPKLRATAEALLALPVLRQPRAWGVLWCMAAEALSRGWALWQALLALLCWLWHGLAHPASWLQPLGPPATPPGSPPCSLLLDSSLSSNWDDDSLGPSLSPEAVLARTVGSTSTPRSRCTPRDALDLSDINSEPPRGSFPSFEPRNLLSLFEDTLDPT
Procedure, shortened: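 The binding affinity of compounds for Myt1 kinase was measured with a LanthaScreen Europium (Eu) Kinase Binding Assay, a time-resolved FRET format in which test compounds compete against a labeled kinase tracer, and the results were expressed as IC50 values describing compound binding to Myt1.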

ACHN cells = test: Cell Titer Glo viability assay, ACHN cells; format: cell-based; conditions: Homo sapiens, 144 h, absolute EC50
Procedure, shortened: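 Cells grown in MEM with 10% FCS were seeded at 500 (A427), 400 (ACHN) or 250 (DAOY) per well and treated the next day with compound at 17 to 10 000 nM. Viability relative to untreated control was read at 144 h by CellTiter-Glo 2.0.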

[2] = target: T2, Wee1A kinase (CDK1 Tyr15 phosphorylation in ACHN renal cell carcinoma cells) (Homo sapiens, UniProt P30291); test: High-content imaging of pCdk1 Y15, Wee1A kinase target engagement in ACHN cells; format: cell-based; conditions: 4 h treatment, nuclear positivity for pCdk1 Y15 vs DMSO control, read-out: CDK1 Tyr15 Phosphorylation EC50
T2 construct: pCDK1 Tyr15 immunofluorescence read-out
T2 sequence (P30291 whole entry): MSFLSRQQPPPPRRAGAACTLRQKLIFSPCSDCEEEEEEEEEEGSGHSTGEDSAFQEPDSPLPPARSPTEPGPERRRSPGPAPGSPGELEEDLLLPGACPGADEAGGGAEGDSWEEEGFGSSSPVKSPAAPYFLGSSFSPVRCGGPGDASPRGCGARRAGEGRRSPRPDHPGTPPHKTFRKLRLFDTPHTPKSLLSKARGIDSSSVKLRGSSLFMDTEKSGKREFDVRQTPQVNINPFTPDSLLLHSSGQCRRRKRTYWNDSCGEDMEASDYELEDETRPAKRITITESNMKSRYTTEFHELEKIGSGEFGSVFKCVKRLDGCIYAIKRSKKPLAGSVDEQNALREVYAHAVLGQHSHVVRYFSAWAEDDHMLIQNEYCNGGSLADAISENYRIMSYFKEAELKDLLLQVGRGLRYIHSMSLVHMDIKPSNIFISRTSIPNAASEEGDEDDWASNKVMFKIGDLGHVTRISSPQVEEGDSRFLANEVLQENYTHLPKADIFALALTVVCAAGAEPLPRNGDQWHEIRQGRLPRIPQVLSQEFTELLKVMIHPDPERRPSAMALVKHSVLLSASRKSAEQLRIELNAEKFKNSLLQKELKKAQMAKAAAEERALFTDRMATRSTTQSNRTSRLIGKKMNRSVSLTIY
Procedure, shortened: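 ACHN cells exposed to compound for 4 h over 7–5,000 nM or 0.3–200 nM, then fixed and immunostained for pCDK1 Y15 with DAPI nuclear counterstain. The percentage of pCdk1 Y15 nucleus-positive cells relative to DMSO control was imaged per well; EC50 from dose-response curves.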

[3] = target: T3, Myt1 kinase (CDK1 Thr14 phosphorylation in ACHN renal cell carcinoma cells) (Homo sapiens, UniProt Q99640); test: AlphaLISA assay, Myt1 kinase target engagement (phospho-CDK1 Thr14) in ACHN cells; format: cell-based; conditions: ACHN cells (marked *); 4 h treatment
T3 construct: pCDK1 Thr14 AlphaLISA read-out
T3 sequence (Q99640 1-499): T1 sequence (Q99640 1-499)
Method: Each of an ACHN renal cell carcinoma cell line (ATCC) and a DAOY medulloblastoma cell line, and an A427 lung cancer line were cultured in Minimum Essential Medium Eagle supplemented with 10% fetal calf serum (Sigma), 1% Penicillin-Streptomycin and 10 mM HEPES buffer (HyClone). Cell cultures were kept in a humidified incubator at 37 °C and 5% CO2. Cells were routinely tested for Mycoplasma contamination.
For target engagement assessment of Myt1 kinase inhibition, quantification of Cdk1 phosphorylated on threonine 14 was detected using the AlphaLISA® SureFire® Ultra™ Human Phospho-CDK1 (Thr14) assay (Perkin Elmer). DAOY or ACHN cells were seeded into tissue culture treated 96-well plates (VWR) to a density of 10,000 or 20,000 cells per well respectively. 24 h post seeding cells were treated for 4 h with compounds at concentrations ranging from 7 to 5000 nM. Cells were washed with PBS and lysed in 50 μl AlphaLISA lysis buffer before freezing at −80 C. Ten ul of the lysate was transferred to 384 well plates and incubated with AlphaLISA donor and acceptor beads according to the manufacturer's instructions. Dose response curves and EC50 values were calculated and visualized using GraphPad Prism version 9. Target engagement for Myt1 kinase can also be measured using the same AlphaLISA assay in OVCAR3 cells, an ovarian cancer cell line. NIH:OVCAR-3 (OVCAR3) cells are cultured in RPMI-1640 medium supplemented with 0.01 mg/ml insulin, 20% FBS, 1% Penicillin-Streptomycin and 10 mM HEPES buffer. 14,000 cells per well are seeded into 96 well tissue culture plates in full medium. Twenty-four hours post seeding, cells are treated with compound for 4 hours at concentrations ranging from 0.017 nM to 1000 nM.

[4] = target: T4, recombinant human Wee1A kinase (Homo sapiens, UniProt P30291); test: Wee1A kinase binding assay (LanthaScreen Eu time-resolved FRET); conditions: 30 nM tracer 178, 5 nM Wee1A kinase, 2 nM Eu-labeled antibody; 60 minutes at room temperature; read-out: Wee1A kinase Binding IC50
T4 construct: full length Wee1 kinase was expressed by baculovirus in insect cells; purchased Invitrogen PV3817; host or cells: insect cells (baculovirus)
T4 sequence (P30291 whole entry): as above
Procedure, shortened: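 Full-length, baculovirus-expressed GST-tagged Wee1A (5 nM) was mixed with 2 nM Eu-anti-GST antibody, 30 nM kinase tracer 178 and compound (1% DMSO). Buffer was 50 mM HEPES pH 7.5, 10 mM MgCl2, 1 mM EGTA, 0.01% Brij-35, incubated 60 min at room temperature. TR-FRET 665/615 nm emission ratios from duplicates were curve-fitted.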

Structure (SMILES) | IC50 [1] [µM] | EC50 (ACHN cells) [µM] | EC50 [2] [µM] | EC50 [3] [µM] | IC50 [4] [µM]
C=CCn1c(=O)c2cnc(Nc3ccc4c(cnn4C)c3)nc2n1-c1cccc(OC2CCCN(C)CC2)n1 (single isomer, unassigned) [Compound 373] | < 0.02 | ≤ 0.1 | < 0.1 | 0.2 to 0.5 | < 0.01
C=CCn1c(=O)c2cnc(Nc3ccc4c(cnn4C)c3)nc2n1-c1cccc(O[C@@H]2CCN(C)[C@@H](C)C2)n1 (stereo in doubt) [Compound 403, rel-2-allyl-1-(6-(((2R,4S)-1,2-dimethylpiperidin-4-yl)oxy)pyridin-2-yl)-6-((1-methyl-1H-indazol-5-yl)amino)-1,2-dihydro-3H-pyrazolo[3,4-d]pyrimidin-3-one] | 0.02 to 0.1 | ≤ 0.1 | < 0.1 | < 0.2 | < 0.01
C=CCn1c(=O)c2cnc(Nc3ccc4c(cnn4C)c3)nc2n1-c1cccc(NC2CCN(C)CC2)n1 [Compound 129, 6-[(1-methyl-1H-indazol-5-yl)amino]-1-{6-[(1-methylpiperidin-4-yl)amino]pyridin-2-yl}-2-(prop-2-en-1-yl)-1H,2H,3H-pyrazolo[3,4-d]pyrimidin-3-one] | 0.1 to 0.5 | ≤ 0.1 | < 0.1 | > 1 | < 0.01
C=CCn1c(=O)c2cnc(Nc3ccc(F)c(C)c3)nc2n1-c1cccc(OC2CCN(C)CC2)n1 [Compound 206, 6-[(4-fluoro-3-methylphenyl)amino]-1-{6-[(1-methylpiperidin-4-yl)oxy]pyridin-2-yl}-2-(prop-2-en-1-yl)-1H,2H,3H-pyrazolo[3,4-d]pyrimidin-3-one] | 0.02 to 0.1 | ≤ 0.1 | < 0.1 | 0.2 to 0.5 | < 0.01
CCn1c(=O)c2cnc(Nc3ccc(-c4cnn(C)c4)cc3)nc2n1-c1cccc(OC2CCN(C)CC2)n1 [Compound 277, 2-ethyl-1-[6-(1-methyl-4-piperidyloxy)-2-pyridyl]-6-[p-(1-methyl-4-pyrazolyl)phenylamino]-1,2-dihydro-3H-1,2,5,7-tetraazainden-3-one] | 0.02 to 0.1 | ≤ 0.1 | < 0.1 | < 0.2 | < 0.01
C=CCn1c(=O)c2cnc(Nc3ccc(N4CCOCC4)cc3)nc2n1-c1cccc(OC2CCN(C)CC2)n1 [Compound 278, 2-allyl-1-(6-((1-methylpiperidin-4-yl)oxy)pyridin-2-yl)-6-((4-morpholinophenyl)amino)-1,2-dihydro-3H-pyrazolo[3,4-d]pyrimidin-3-one] | 0.02 to 0.1 | ≤ 0.1 | < 0.1 | < 0.2 | < 0.01
C=CCn1c(=O)c2cnc(Nc3ccc4c(cnn4C)c3)nc2n1-c1ccnc(OC2CCN(C)CC2)n1 [Compound 279, 2-allyl-6-((1-methyl-1H-indazol-5-yl)amino)-1-(2-((1-methylpiperidin-4-yl)oxy)pyrimidin-4-yl)-1,2-dihydro-3H-pyrazolo[3,4-d]pyrimidin-3-one] | 0.02 to 0.1 | ≤ 0.1 | < 0.1 | 0.2 to 0.5 | < 0.01
C=CCn1c(=O)c2cnc(Nc3ccc4c(cnn4CC)c3)nc2n1-c1cccc(OC2CCNCC2)n1 [Compound 280, 2-allyl-6-((1-ethyl-1H-indazol-5-yl)amino)-1-(6-(piperidin-4-yloxy)pyridin-2-yl)-1,2-dihydro-3H-pyrazolo[3,4-d]pyrimidin-3-one] | < 0.02 | ≤ 0.1 | < 0.1 | 0.2 to 0.5 | < 0.01
[2H]C([2H])([2H])N1CCC(Oc2cccc(-n3c4nc(Nc5ccc6c(cnn6C)c5)ncc4c(=O)n3CC=C)n2)CC1 [Compound 281, 2-allyl-6-((1-methyl-1H-indazol-5-yl)amino)-1-(6-((1-(methyl-d3)piperidin-4-yl)oxy)pyridin-2-yl)-1,2-dihydro-3H-pyrazolo[3,4-d]pyrimidin-3-one] | 0.02 to 0.1 | ≤ 0.1 | < 0.1 | < 0.2 | < 0.01
C=CCn1c(=O)c2cnc(Nc3ccc4nn(CC)cc4c3)nc2n1-c1cccc(OC2CCN(C)CC2)n1 [Compound 282, 2-allyl-6-((2-ethyl-2H-indazol-5-yl)amino)-1-(6-((1-methylpiperidin-4-yl)oxy)pyridin-2-yl)-1,2-dihydro-3H-pyrazolo[3,4-d]pyrimidin-3-one] | < 0.02 | ≤ 0.1 | < 0.1 | < 0.2 | < 0.01
C=CCn1c(=O)c2cnc(Nc3ccc4c(cnn4C)c3)nc2n1-c1cccc(OC2CCN(CCC)CC2)n1 [Compound 322, 2-allyl-6-(1-methyl-1H-indazol-5-ylamino)-1-[6-(1-propyl-4-piperidyloxy)-2-pyridyl]-1,2-dihydro-3H-1,2,5,7-tetraazainden-3-one] | 0.02 to 0.1 | ≤ 0.1 | < 0.1 | 0.2 to 0.5 | < 0.01
[2H]C([2H])([2H])N1CCC(Oc2cccc(-n3c4nc(Nc5ccc6c(cnn6C(C)C)c5)ncc4c(=O)n3CC=C)n2)CC1 [Compound 354, 2-allyl-6-(1-isopropyl-1H-indazol-5-ylamino)-1-(6-{1-[(^2H3)methyl]-4-piperidyloxy}-2-pyridyl)-1,2-dihydro-3H-1,2,5,7-tetraazainden-3-one] | < 0.02 | ≤ 0.1 | < 0.1 | < 0.2 | –
C=CCn1c(=O)c2cnc(Nc3ccc4c(cnn4C)c3)nc2n1-c1cccc(OC2CCCN(C)CC2)n1 (centres unmarked) [Compound 361] | – | ≤ 0.1 | < 0.1 | 0.2 to 0.5 | < 0.01
C=CCn1c(=O)c2cnc(Nc3ccc4c(cnn4C(C)C)c3)nc2n1-c1ccnc(OC2CCN(C)CC2)n1 [Compound 401, 2-allyl-6-((1-isopropyl-1H-indazol-5-yl)amino)-1-(2-((1-methylpiperidin-4-yl)oxy)pyrimidin-4-yl)-1,2-dihydro-3H-pyrazolo[3,4-d]pyrimidin-3-one] | < 0.02 | – | < 0.1 | < 0.2 | < 0.01
C=CCn1c(=O)c2cnc(Nc3cnc4c(cnn4C(C)C)c3)nc2n1-c1cccc(OC2CCN(C)CC2)n1 [Compound 406, 2-allyl-6-((1-isopropyl-1H-pyrazolo[3,4-b]pyridin-5-yl)amino)-1-(6-((1-methylpiperidin-4-yl)oxy)pyridin-2-yl)-1,2-dihydro-3H-pyrazolo[3,4-d]pyrimidin-3-one] | < 0.02 | – | < 0.1 | < 0.2 | < 0.01
